{"source": "patent US11478474B2", "about": "“2-(3′-(hydroxymethyl)-1-methyl-5-((5-(2-methyl-4-(oxetan-3-yl)piperazin-1-yl)pyridin-2-yl)amino)-6-oxo-1,6-dihydro-[3,4′-bipyridin]-2′-yl)-7,7-dimethyl-7,8-dihydro-2H-cyclopenta[4,5]pyrrolo[1,2-a]pyrazin-1(6H)-one as a BTK inhibitor” (HUTCHISON MEDIPHARMA LIMITED, priority 2020, dated 2022)", "key": {"[1]": {"assay": "Stability test in liver microsomes (mouse)", "format": "in vitro ADME", "details": "mouse liver microsomes 0.5 mg/mL, compound 1 μM, 37° C.", "text": "(§1) Example 5 Stability Test in Liver Microsomes\n(§2) Both male CD-1 mouse pooled liver microsomes and male SD rat pooled liver microsomes were purchased from BioreclamationIVT Corporation, USA.\n(§3) Phenacetin, glucose-6-phosphate dehydrogenase (G-6-PDH) and nicotinamide adenine dinucleotide phosphate (NADP) were all purchased from Sigma-Aldrich Corporation, USA. Glucose-6-phosphate (G-6-P) was purchased from Shanghai Eybridge Chemical Technology Co., Ltd.\n(§4) Ten mM test compound stock solution: a certain amount of test compound was weighed, and dissolved with an appropriate volume of DMSO to prepare a stock solution with a concentration of 10 mM for use.\n(§5) Reaction stopping solution: an appropriate amount of internal standard compound phenacetin was dissolved in acetonitrile to prepare a reaction stopping solution with a concentration of 1000 ng/mL for use at room temperature.\n(§6) The test compound stock solution was diluted with an organic solvent (usually a mixture of acetonitrile, methanol and water with various ratios, depending on the solubility of the compound, if necessary, 1 N hydrochloric acid or 1 N sodium hydroxide would be added to facilitate solubilization) to the 0.1 mM (the final concentration of the compound in the reaction system was 1 μM) and the concentration percentage of the organic solvents in the incubation system no more than 1% (wherein the percentage of DMSO was required to be no more than 0.1%). An appropriate amount of 100 mM NADP, 500 mM G-6-P and 100 Unit/mL G-6-PDH were mixed and diluted with ultrapure water (the final system contains 1 mM NADP, 5 mM G-6-P and 1 Unit/mL G-6-PDH), pre-incubated in a 37° C. water bath for 10 minutes and then placed on ice for use as a NADPH regeneration solution. 20 mg/mL liver microsomes solution and 200 mM phosphate buffer was mixed, and diluted with ultrapure water to give a liver microsomes solution containing 2.5 mg/mL liver microsomes (the final concentration of the reaction system is 0.5 mg/mL) and 50 mM phosphate buffer. The diluted liver microsomes solution was mixed with 0.1 mM compound solution, a mixture of 100 mM EDTA, 300 mM MgCl2 solution, 200 mM phosphate buffer (the final system was 3 mM MgCl2, 1 mM EDTA and 50 mM phosphate buffer) and water in an appropriate volume was added. Finally, the NADPH regeneration solution was added, then the reaction solution was placed in a 37° C. water bath to start the reaction (the reaction time was 30 minutes), and the reaction was stopped by adding the ice-cold acetonitrile reaction stopping solution containing the internal standard. The 0-minute sample was not incubated in a 37° C. water bath, and its difference from the 30-minute sample further lies in that the ice-cold acetonitrile reaction stopping solution containing the internal standard was added first, and then the NADPH regeneration solution was added. The sample added with the reaction stopping internal standard solution was vortexed and mixed well, and then centrifuged at 4400 rpm for 10 minutes. The supernatant was taken and diluted ten times with 50% methanol for LC-MS/MS analysis.\n(§7) LC-MS/MS was used to determine the concentration of the compound in the sample. The percentage of the remaining compound after 30 minutes of incubation comparing with that in the 0-minute sample was calculated using the peak area ratio of the compound to the internal standard as an indicator, to evaluate the metabolic stability of the compound.\n(§8) Instrument: API4500, API4000 or LTQ Mass Spectrometer; the liquid phase is UHPLC system (Shimadzu LC-30 AD, model Nexra X2) including liquid delivery unit, column thermostat, detector and autosampler; or Agilent 1200 Binary Pump series HPLC and CTC Autosampler.\n(§9) Chromatographic column: Waters XSELECT Hss T3 C18 (2.5 μm, 2.1×50 mm) or […] (5 μm, 2.0×50 mm)\n(§10) A: water with 0.1% FA (formic acid) (with or without 0.1% ACN (acetonitrile))\n(§11) B: acetonitrile with 0.1% FA (formic acid)."}, "[2]": {"assay": "Stability test in liver microsomes (rat)", "format": "in vitro ADME", "text": "as §1, §2, §3, §4, §5, §6, §7, §8, §9, §10, §11"}, "[3]": {"test_system": "B cell activation in mouse whole blood induced by anti-IgD antibodies", "assay": "In vivo efficacy of the inhibitory effect on BTK target (anti-IgD antibody-induced B cell activation in mice whole blood after in vivo administration)", "details": "5 mg/kg, mice whole blood, anti-IgD antibody; for Inhibition ratio (%) on B cell activation: 16 hours after administration", "procedure": "Objects: B cells in mice whole blood were induced and activated by the anti-IgD antibody, and the inhibitory effect of the compound of the present invention on B cell activation in vivo was studied, so as to determine the inhibitory effect of the compound of the present invention on the BTK target in vivo.\nMethods: C57BL/6 mice (female, 18-20 g, purchased from Shanghai Lingchang Biotechnology Co., Ltd.) were grouped according to Table 2.\nThe animals of each group were administered, then were placed in CO2 for anesthesia at designated time points, blood samples were taken from […] via retro-orbital bleeding, and heparin was used for anticoagulation; 90 μL of whole blood was taken from mice of each group, and added to a 96 well culture plate, and anti-mouse IgD antibody (BIO-RAD, Cat #MCA4693) was added to each well to a final concentration of 0.01 μg/μL (respectively for the each drug-treated group and anti-IgD antibody-inducted vehicle group); in addition, 90 μL of whole blood of mice in the vehicle group was taken and added to the 96-well culture plate, and PBS (phosphate buffer, GIBCO, Cat #C20012500BT) was added to each well to a final concentration of 0.01 μg/μL (namely, the vehicle control group); Each group was mixed well and incubated in a 37° C./5% CO2 incubator for 4 hours. In addition, the blood of mice in the drug-treated group was centrifuged to separate plasma for blood concentration analysis.\nCalculation for B Cell Activation Ratio: B cell activation ratio=percentage of CD69+CD19+double positive B cells/percentage of CD19+single positive B cells\nCalculation for Inhibition Ratio: Inhibition ratio=(percentage of B cell activation ratio in anti-IgD antibody-induced vehicle group-percentage of B cell activation ratio in drug-treated group)/(percentage of B cell activation ratio in anti-IgD antibody-induced vehicle group-percentage of B cell activation ratio in vehicle control group)×100%\nAll data are represented by mean±standard error. For the comparison between each drug-treated group and the anti-IgD antibody-induced vehicle group, p value was calculated by Graphpad Prism using one-way ANOVA analysis of variance and Dunnett's test, and for the comparison between each drug-treated group, p value was calculated by using unpaired t test."}}, "data": [{"smiles": "C[C@H]1CN(C2COC2)CCN1c1ccc(Nc2cc(-c3ccnc(-n4ccn5c6c(cc5c4=O)CC(C)(C)C6)c3CO)cn(C)c2=O)nc1", "note": "[Compound 19]", "values": [{"measurement": "MLM (percentage of the remaining compound after 30 minutes of incubation)", "setting": "[1]", "result": 91.8, "unit": "%"}, {"measurement": "stability in rat & mouse liver microsomes compared with the reference GDC-0853", "setting": "[2]; rat & mouse liver microsomes, 30 minutes", "result": "better than that of the reference GDC-0853"}, {"measurement": "RLM (percentage of the remaining compound after 30 minutes of incubation)", "setting": "[2]; rat liver microsomes 0.5 mg/mL, compound 1 μM, 37° C.", "result": 92.7, "unit": "%"}, {"measurement": "B cell activation ratio (the proportion of activated B cells to total B cells)", "setting": "[3]; 16 h after administration, mean±standard error", "result": "8.3 ± 1.2"}, {"measurement": "Inhibition ratio (%) on B cell activation", "setting": "[3]; listed as Compound 19", "result": 80, "unit": "%"}, {"measurement": "Inhibition ratio (%) on B cell activation", "setting": "[3]; listed as compound 19", "result": 80, "unit": "%"}]}]}
